*1 amine or outer side, *2 acyl side, *3 side chain or, on linkers, in order; H or OH if unused. Where a SMILES comes first, the peptide text is derived from it. Side-chain parts run from the residue outwards. [ ]: non-standard residue; d: D form. The star is where a group is joined. X1 = O=C(O)CCCCCCCCCCCCCCCCCCC(=O)N1CCN(CC(=O)*)CC1; C20 diacid = O=C(O)CCCCCCCCCCCCCCCCCCC(=O)*; C18 diacid = O=C(O)CCCCCCCCCCCCCCCCC(=O)*; γGlu = O=C(O)[C@H](CCC(=O)[*:2])N[*:1]; AEEA = NCCOCCOCC(=O)O; Aib = CC(C)(N)C(=O)O
Columns and labels:
human GLP-1 R = target: T1, human GLP-1 R (Homo sapiens, UniProt P43220); test: Human GLP-1 receptor (GLP-1 R) activity assay, cAMP induction (AlphaScreen) in HEK293 cells; type: cell-based; conditions: Table 3; most comprehensive data; read-out: hGLP-1-R cAMP EC50 average value
T1 construct: expressed in transfected cells
How it was run: (§1)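 Stable HEK293 clones expressing human GIP R or GLP-1 R, seeded 1 day before; cells washed in Tyrode's buffer (10 mM HEPES, pH 7.4), stimulated, then lysed. cAMP measured by AlphaScreen bead competition (1 h, room temperature, dark). EC50 = concentration giving half-maximal cAMP elevation, from curves of absolute cAMP (nM) vs log concentration.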

human GIP R = target: T2, human GIP R (Homo sapiens, UniProt P48546); test: Human GIP receptor (GIP R) activity assay, cAMP induction (AlphaScreen) in HEK293 cells; type: cell-based; conditions: Table 3; most comprehensive data; read-out: hGIP-R cAMP EC50 average value
T2 construct: expressed in transfected cells
T2 sequence (P48546 22-466): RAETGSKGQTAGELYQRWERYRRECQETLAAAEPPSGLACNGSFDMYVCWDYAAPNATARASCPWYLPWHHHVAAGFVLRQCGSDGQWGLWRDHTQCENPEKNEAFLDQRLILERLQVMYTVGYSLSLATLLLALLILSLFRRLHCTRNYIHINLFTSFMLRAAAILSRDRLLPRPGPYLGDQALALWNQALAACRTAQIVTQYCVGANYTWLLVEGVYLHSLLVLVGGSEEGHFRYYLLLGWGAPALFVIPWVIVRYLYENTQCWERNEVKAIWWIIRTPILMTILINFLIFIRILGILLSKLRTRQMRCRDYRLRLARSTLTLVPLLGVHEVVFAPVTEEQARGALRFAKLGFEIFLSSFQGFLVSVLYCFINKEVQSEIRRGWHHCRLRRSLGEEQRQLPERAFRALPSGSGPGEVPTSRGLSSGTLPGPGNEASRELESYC
How it was run: as §1

T1 sequence (P43220 24-463): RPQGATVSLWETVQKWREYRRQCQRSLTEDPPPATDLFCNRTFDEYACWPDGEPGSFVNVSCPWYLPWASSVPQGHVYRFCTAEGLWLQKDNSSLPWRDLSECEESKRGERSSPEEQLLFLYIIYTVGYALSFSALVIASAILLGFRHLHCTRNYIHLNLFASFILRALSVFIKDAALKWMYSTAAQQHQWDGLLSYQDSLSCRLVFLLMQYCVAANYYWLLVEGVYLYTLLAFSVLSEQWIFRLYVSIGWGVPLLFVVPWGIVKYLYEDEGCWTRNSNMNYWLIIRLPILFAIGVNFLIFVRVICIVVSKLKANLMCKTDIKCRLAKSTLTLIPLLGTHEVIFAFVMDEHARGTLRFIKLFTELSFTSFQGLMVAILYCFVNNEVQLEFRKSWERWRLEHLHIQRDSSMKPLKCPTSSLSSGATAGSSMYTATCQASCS

SMILES | EC50 (human GLP-1 R) | EC50 (human GIP R)
CC[C@H](C)[C@H](NC(=O)[C@H](CO)NC(=O)[C@H](Cc1ccc(O)cc1)NC(=O)[C@H](CC(=O)O)NC(=O)[C@H](CO)NC(=O)[C@@H](NC(=O)[C@H](Cc1ccccc1)NC(=O)[C@@H](NC(=O)CNC(=O)[C@H](CCC(=O)O)NC(=O)C(C)(C)NC(=O)[C@@H](N)Cc1ccc(O)cc1)[C@@H](C)O)[C@@H](C)O)C(=O)N[C@@H](C)C(=O)N[C@@H](CC(C)C)C(=O)N[C@@H](CC(=O)O)C(=O)N[C@@H](CCCCN)C(=O)N[C@@H](CCCCNC(=O)COCCOCCNC(=O)COCCOCCNC(=O)CC[C@H](NC(=O)CCCCCCCCCCCCCCCCCCC(=O)O)C(=O)O)C(=O)N[C@@H](C)C(=O)N[C@@H](CCC(N)=O)C(=O)N[C@@H](CCCCN)C(=O)N[C@@H](CCC(=O)O)C(=O)N[C@@H](Cc1ccccc1)C(=O)N[C@H](C(=O)N[C@@H](CCC(=O)O)C(=O)N[C@@H](Cc1c[nH]c2ccccc12)C(=O)N[C@@H](CC(C)C)C(=O)N[C@@H](CC(C)C)C(=O)N[C@@H](C)C(=O)N[C@@H](CCC(N)=O)C(=O)NCC(=O)N1CCC[C@H]1C(=O)N[C@@H](CO)C(=O)N[C@@H](CO)C(=O)NCC(=O)N[C@@H](C)C(=O)N1CCC[C@H]1C(=O)N1CCC[C@H]1C(=O)N1CCC[C@H]1C(=O)N[C@@H](CO)C(N)=O)C(C)C [Compound 48] (H-Y[Aib]EGTFTSDYSIALDKK([AEEA-AEEA-γGlu-C20 diacid])AQKEFVEWLLAQGPSSGAPPPS-NH2) | 0.052 nM | 0.006 nM
CC[C@H](C)[C@H](NC(=O)[C@H](CO)NC(=O)[C@H](Cc1ccc(O)cc1)NC(=O)[C@H](CC(=O)O)NC(=O)[C@H](CO)NC(=O)[C@@H](NC(=O)[C@H](Cc1ccccc1)NC(=O)[C@@H](NC(=O)CNC(=O)[C@H](CCC(=O)O)NC(=O)C(C)(C)NC(=O)[C@@H](N)Cc1ccc(O)cc1)[C@@H](C)O)[C@@H](C)O)C(=O)N[C@@H](C)C(=O)N[C@@H](CC(C)C)C(=O)N[C@@H](CC(=O)O)C(=O)N[C@@H](CCCCN)C(=O)N[C@@H](CCCCNC(=O)COCCOCCNC(=O)COCCOCCNC(=O)CC[C@H](NC(=O)CCCCCCCCCCCCCCCCCCC(=O)O)C(=O)O)C(=O)N[C@@H](C)C(=O)N[C@@H](CCC(N)=O)C(=O)N[C@@H](CCCCN)C(=O)N[C@@H](CCC(=O)O)C(=O)N[C@@H](Cc1ccccc1)C(=O)N[C@H](C(=O)N[C@@H](CCC(=O)O)C(=O)N[C@@H](Cc1c[nH]c2ccccc12)C(=O)N[C@@H](CC(C)C)C(=O)N[C@@H](CC(C)C)C(=O)N[C@@H](C)C(=O)N[C@@H](C)C(=O)NCC(=O)N1CCC[C@H]1C(=O)N[C@@H](CO)C(=O)N[C@@H](CO)C(=O)NCC(=O)N[C@@H](C)C(=O)N1CCC[C@H]1C(=O)N1CCC[C@H]1C(=O)N1CCC[C@H]1C(=O)N[C@@H](CO)C(N)=O)C(C)C [Compound 49] (H-Y[Aib]EGTFTSDYSIALDKK([AEEA-AEEA-γGlu-C20 diacid])AQKEFVEWLLAAGPSSGAPPPS-NH2) | 0.053 nM | 0.009 nM
CC[C@H](C)[C@H](NC(=O)[C@H](CO)NC(=O)[C@H](Cc1ccc(O)cc1)NC(=O)[C@H](CC(=O)O)NC(=O)[C@H](CO)NC(=O)[C@@H](NC(=O)[C@H](Cc1ccccc1)NC(=O)[C@@H](NC(=O)CNC(=O)[C@H](CCC(=O)O)NC(=O)C(C)(C)NC(=O)[C@@H](N)Cc1ccc(O)cc1)[C@@H](C)O)[C@@H](C)O)C(=O)N[C@@H](C)C(=O)N[C@@H](CC(C)C)C(=O)N[C@@H](CC(=O)O)C(=O)N[C@@H](CCCCN)C(=O)N[C@@H](CCCCNC(=O)COCCOCCNC(=O)COCCOCCNC(=O)CC[C@H](NC(=O)CCCCCCCCCCCCCCCCCCC(=O)O)C(=O)O)C(=O)N[C@@H](C)C(=O)N[C@@H](CCC(N)=O)C(=O)N[C@@H](CCCNC(=N)N)C(=O)N[C@@H](C)C(=O)N[C@@H](Cc1ccccc1)C(=O)N[C@H](C(=O)N[C@@H](CCC(=O)O)C(=O)N[C@@H](Cc1c[nH]c2ccccc12)C(=O)N[C@@H](CC(C)C)C(=O)N[C@@H](CC(C)C)C(=O)N[C@@H](C)C(=O)N[C@@H](CCC(N)=O)C(=O)NCC(=O)N1CCC[C@H]1C(=O)N[C@@H](CO)C(=O)N[C@@H](CO)C(=O)NCC(=O)N[C@@H](C)C(=O)N1CCC[C@H]1C(=O)N1CCC[C@H]1C(=O)N1CCC[C@H]1C(=O)N[C@@H](CO)C(N)=O)[C@@H](C)CC [Compound 50] (H-Y[Aib]EGTFTSDYSIALDKK([AEEA-AEEA-γGlu-C20 diacid])AQRAFIEWLLAQGPSSGAPPPS-NH2) | 0.015 nM | 0.007 nM
CC[C@H](C)[C@H](NC(=O)[C@H](CO)NC(=O)[C@H](Cc1ccc(O)cc1)NC(=O)[C@H](CC(=O)O)NC(=O)[C@H](CO)NC(=O)[C@@H](NC(=O)[C@H](Cc1ccccc1)NC(=O)[C@@H](NC(=O)CNC(=O)[C@H](CCC(=O)O)NC(=O)C(C)(C)NC(=O)[C@@H](N)Cc1ccc(O)cc1)[C@@H](C)O)[C@@H](C)O)C(=O)N[C@@H](C)C(=O)N[C@@H](CC(C)C)C(=O)N[C@@H](CC(=O)O)C(=O)N[C@@H](CCCCN)C(=O)N[C@@H](CCCCNC(=O)COCCOCCNC(=O)COCCOCCNC(=O)CC[C@H](NC(=O)CCCCCCCCCCCCCCCCC(=O)O)C(=O)O)C(=O)N[C@@H](C)C(=O)N[C@@H](CCC(N)=O)C(=O)N[C@@H](CCCNC(=N)N)C(=O)N[C@@H](C)C(=O)N[C@@H](Cc1ccccc1)C(=O)N[C@H](C(=O)N[C@@H](CCC(=O)O)C(=O)N[C@@H](Cc1c[nH]c2ccccc12)C(=O)N[C@@H](CC(C)C)C(=O)N[C@@H](CC(C)C)C(=O)N[C@@H](C)C(=O)N[C@@H](CCC(N)=O)C(=O)NCC(=O)N1CCC[C@H]1C(=O)N[C@@H](CO)C(=O)N[C@@H](CO)C(=O)NCC(=O)N[C@@H](C)C(=O)N1CCC[C@H]1C(=O)N1CCC[C@H]1C(=O)N1CCC[C@H]1C(=O)N[C@@H](CO)C(N)=O)C(C)C [Compound 51] (H-Y[Aib]EGTFTSDYSIALDKK([AEEA-AEEA-γGlu-C18 diacid])AQRAFVEWLLAQGPSSGAPPPS-NH2) | 0.017 nM | 0.005 nM
CC[C@H](C)[C@H](NC(=O)[C@H](CO)NC(=O)[C@H](Cc1ccc(O)cc1)NC(=O)[C@H](CC(=O)O)NC(=O)[C@H](CO)NC(=O)[C@@H](NC(=O)[C@H](Cc1ccccc1)NC(=O)[C@@H](NC(=O)CNC(=O)[C@H](CCC(=O)O)NC(=O)C(C)(C)NC(=O)[C@@H](N)Cc1ccc(O)cc1)[C@@H](C)O)[C@@H](C)O)C(=O)N[C@@H](C)C(=O)N[C@@H](CC(C)C)C(=O)N[C@@H](CC(=O)O)C(=O)N[C@@H](CCCCN)C(=O)N[C@@H](CCCCNC(=O)COCCOCCNC(=O)COCCOCCNC(=O)CN1CCN(C(=O)CCCCCCCCCCCCCCCCCCC(=O)O)CC1)C(=O)N[C@@H](C)C(=O)N[C@@H](CCC(N)=O)C(=O)N[C@@H](CCCNC(=N)N)C(=O)N[C@@H](C)C(=O)N[C@@H](Cc1ccccc1)C(=O)N[C@H](C(=O)N[C@@H](CCC(=O)O)C(=O)N[C@@H](Cc1c[nH]c2ccccc12)C(=O)N[C@@H](CC(C)C)C(=O)N[C@@H](CC(C)C)C(=O)N[C@@H](C)C(=O)N[C@@H](CCC(N)=O)C(=O)NCC(=O)N1CCC[C@H]1C(=O)N[C@@H](CO)C(=O)N[C@@H](CO)C(=O)NCC(=O)N[C@@H](C)C(=O)N1CCC[C@H]1C(=O)N1CCC[C@H]1C(=O)N1CCC[C@H]1C(=O)N[C@@H](CO)C(N)=O)C(C)C [Compound 52] (H-Y[Aib]EGTFTSDYSIALDKK([AEEA-AEEA-X1])AQRAFVEWLLAQGPSSGAPPPS-NH2) | 0.012 nM | 0.01 nM
CC[C@H](C)[C@H](NC(=O)[C@H](CO)NC(=O)[C@H](Cc1ccc(O)cc1)NC(=O)[C@H](CC(=O)O)NC(=O)[C@H](CO)NC(=O)[C@@H](NC(=O)[C@H](Cc1ccccc1)NC(=O)[C@@H](NC(=O)CNC(=O)[C@H](CCC(=O)O)NC(=O)C(C)(C)NC(=O)[C@@H](N)Cc1ccc(O)cc1)[C@@H](C)O)[C@@H](C)O)C(=O)N[C@@H](C)C(=O)N[C@@H](CC(C)C)C(=O)N[C@@H](CC(=O)O)C(=O)N[C@@H](CCCCN)C(=O)N[C@@H](CCCCNC(=O)COCCOCCNC(=O)COCCOCCNC(=O)CN1CCN(C(=O)CCCCCCCCCCCCCCCCCCC(=O)O)CC1)C(=O)N[C@@H](C)C(=O)N[C@@H](CCC(N)=O)C(=O)N[C@@H](CCCCN)C(=O)N[C@@H](CCC(=O)O)C(=O)N[C@@H](Cc1ccccc1)C(=O)N[C@H](C(=O)N[C@@H](CCC(=O)O)C(=O)N[C@@H](Cc1c[nH]c2ccccc12)C(=O)N[C@@H](CC(C)C)C(=O)N[C@@H](CC(C)C)C(=O)N[C@@H](C)C(=O)N[C@@H](C)C(=O)NCC(=O)N1CCC[C@H]1C(=O)N[C@@H](CO)C(=O)N[C@@H](CO)C(=O)NCC(=O)N[C@@H](C)C(=O)N1CCC[C@H]1C(=O)N1CCC[C@H]1C(=O)N1CCC[C@H]1C(=O)N[C@@H](CO)C(N)=O)C(C)C [Compound 53] (H-Y[Aib]EGTFTSDYSIALDKK([AEEA-AEEA-X1])AQKEFVEWLLAAGPSSGAPPPS-NH2) | 0.014 nM | 0.006 nM
